Source: article PMC8550792, “Evolution of kinase polypharmacology across HSP90 drug discovery” (Cell Chemical Biology, 2021)

Assays:
Assay in all cases: biochemical
Format in all cases: biochemical
382 unique human kinases [1] = biological target: T1, 382 unique human kinases (Homo sapiens, UniProt P10721, N822K/V560G); conditions: c-Kit (V560G/N822K), [ATP] 5 µM, compound 10 uM; for remaining activity at 10 µM: read-out: % Enzyme Activity (relative to DMSO controls)
T1 construct: purchased Reaction Biology (HotSpot contract assay)
T1 sequence (P10721 26-976 V560G/N822K): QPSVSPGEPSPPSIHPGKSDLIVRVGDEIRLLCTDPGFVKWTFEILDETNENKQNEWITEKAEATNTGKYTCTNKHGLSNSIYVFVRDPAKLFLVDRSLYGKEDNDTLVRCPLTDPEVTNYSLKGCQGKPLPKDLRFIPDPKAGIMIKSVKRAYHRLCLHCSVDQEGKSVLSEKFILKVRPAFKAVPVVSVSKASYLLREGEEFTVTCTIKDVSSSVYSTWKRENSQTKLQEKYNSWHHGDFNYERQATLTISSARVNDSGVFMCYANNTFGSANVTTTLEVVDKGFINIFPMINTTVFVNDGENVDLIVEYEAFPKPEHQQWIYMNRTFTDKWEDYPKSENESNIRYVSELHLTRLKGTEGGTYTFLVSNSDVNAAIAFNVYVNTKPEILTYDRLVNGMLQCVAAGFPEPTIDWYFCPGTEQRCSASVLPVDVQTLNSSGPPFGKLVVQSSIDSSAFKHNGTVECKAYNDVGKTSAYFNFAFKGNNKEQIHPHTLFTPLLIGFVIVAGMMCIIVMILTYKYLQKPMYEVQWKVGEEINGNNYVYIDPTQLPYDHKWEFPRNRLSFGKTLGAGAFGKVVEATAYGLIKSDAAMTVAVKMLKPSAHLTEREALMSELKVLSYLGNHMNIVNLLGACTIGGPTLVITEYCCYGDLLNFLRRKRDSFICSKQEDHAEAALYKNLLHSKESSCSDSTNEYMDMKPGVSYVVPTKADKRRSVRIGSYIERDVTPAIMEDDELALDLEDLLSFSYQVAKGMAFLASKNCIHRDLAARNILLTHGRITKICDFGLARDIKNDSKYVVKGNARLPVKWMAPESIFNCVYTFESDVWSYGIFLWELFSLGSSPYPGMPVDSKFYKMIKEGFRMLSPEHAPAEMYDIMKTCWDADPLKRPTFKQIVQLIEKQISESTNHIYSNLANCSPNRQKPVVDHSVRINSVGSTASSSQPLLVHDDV

382 unique human kinases [2] = biological target: T2, 382 unique human kinases (Homo sapiens, UniProt Q8IYT8); conditions: ULK2, 10 uM; for remaining activity at 10 µM: read-out: % Enzyme Activity (relative to DMSO controls)
T2 construct: purchased Reaction Biology (HotSpot contract assay)
T2 sequence (Q8IYT8 1-1036): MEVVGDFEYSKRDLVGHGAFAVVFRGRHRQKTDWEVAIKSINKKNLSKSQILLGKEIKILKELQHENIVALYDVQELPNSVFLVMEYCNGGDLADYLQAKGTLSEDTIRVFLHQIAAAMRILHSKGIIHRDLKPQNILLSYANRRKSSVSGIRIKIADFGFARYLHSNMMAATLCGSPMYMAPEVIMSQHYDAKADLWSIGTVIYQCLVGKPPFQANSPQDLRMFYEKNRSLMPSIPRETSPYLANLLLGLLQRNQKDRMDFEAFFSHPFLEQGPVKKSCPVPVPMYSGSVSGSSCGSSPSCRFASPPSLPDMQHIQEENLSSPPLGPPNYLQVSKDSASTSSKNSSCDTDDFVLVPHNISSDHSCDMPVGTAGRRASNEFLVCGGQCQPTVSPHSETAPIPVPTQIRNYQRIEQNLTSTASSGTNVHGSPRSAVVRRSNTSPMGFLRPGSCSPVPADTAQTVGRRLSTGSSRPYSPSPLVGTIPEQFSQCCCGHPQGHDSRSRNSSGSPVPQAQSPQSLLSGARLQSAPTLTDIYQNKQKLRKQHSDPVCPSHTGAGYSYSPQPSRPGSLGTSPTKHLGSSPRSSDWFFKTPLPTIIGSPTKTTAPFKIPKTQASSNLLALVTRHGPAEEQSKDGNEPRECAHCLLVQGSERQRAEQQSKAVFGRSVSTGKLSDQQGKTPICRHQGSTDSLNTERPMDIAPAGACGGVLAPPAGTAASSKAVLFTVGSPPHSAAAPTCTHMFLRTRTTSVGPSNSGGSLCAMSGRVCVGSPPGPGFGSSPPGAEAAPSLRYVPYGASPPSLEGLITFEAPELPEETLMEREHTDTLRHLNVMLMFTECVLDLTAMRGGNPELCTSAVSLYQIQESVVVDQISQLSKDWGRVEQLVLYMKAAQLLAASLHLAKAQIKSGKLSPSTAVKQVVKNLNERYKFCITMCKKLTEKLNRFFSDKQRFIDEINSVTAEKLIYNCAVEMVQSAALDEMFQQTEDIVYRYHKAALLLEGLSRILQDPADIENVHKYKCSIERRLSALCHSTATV

382 unique human kinases [3] = biological target: T3, 382 unique human kinases (Homo sapiens, UniProt P23458); conditions: JAK1, 10 uM; for remaining activity at 10 µM: read-out: % Enzyme Activity (relative to DMSO controls)
T3 construct: purchased Reaction Biology (HotSpot contract assay)
T3 sequence (P23458 whole entry): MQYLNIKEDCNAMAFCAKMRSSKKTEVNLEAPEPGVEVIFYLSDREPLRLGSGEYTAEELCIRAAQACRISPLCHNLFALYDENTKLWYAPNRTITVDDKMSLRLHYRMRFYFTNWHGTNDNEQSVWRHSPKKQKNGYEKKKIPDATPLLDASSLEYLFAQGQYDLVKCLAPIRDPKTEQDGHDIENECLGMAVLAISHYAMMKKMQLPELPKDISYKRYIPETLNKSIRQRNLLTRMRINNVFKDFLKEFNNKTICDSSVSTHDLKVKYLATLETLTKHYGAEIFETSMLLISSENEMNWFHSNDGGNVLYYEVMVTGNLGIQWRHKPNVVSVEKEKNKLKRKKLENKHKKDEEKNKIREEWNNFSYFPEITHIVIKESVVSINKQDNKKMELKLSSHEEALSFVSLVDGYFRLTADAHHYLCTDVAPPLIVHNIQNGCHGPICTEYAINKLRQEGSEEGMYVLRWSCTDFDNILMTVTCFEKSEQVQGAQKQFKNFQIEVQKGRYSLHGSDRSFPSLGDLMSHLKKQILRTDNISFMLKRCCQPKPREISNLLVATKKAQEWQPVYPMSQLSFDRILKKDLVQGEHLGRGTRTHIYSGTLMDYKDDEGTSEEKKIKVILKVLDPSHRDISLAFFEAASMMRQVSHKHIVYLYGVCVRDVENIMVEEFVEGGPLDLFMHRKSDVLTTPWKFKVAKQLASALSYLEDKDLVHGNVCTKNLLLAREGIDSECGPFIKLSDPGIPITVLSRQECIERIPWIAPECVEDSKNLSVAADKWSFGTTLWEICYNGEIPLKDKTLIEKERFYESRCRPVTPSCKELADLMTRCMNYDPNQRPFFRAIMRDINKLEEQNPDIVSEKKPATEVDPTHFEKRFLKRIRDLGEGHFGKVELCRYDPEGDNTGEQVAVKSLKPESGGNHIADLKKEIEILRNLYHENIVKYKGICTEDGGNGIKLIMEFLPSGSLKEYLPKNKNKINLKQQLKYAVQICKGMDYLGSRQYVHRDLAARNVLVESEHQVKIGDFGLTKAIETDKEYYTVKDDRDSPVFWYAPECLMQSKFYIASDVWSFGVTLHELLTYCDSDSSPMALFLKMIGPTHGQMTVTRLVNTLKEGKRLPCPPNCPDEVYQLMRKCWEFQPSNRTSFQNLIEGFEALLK

382 unique human kinases [4] = biological target: T4, 382 unique human kinases (Homo sapiens, UniProt Q9UF33); conditions: kinase EPHA6, compound 10 uM; for remaining activity at 10 µM: read-out: % Enzyme Activity (relative to DMSO controls)
T4 construct: purchased Reaction Biology (HotSpot contract assay)
T4 sequence (Q9UF33 23-1036): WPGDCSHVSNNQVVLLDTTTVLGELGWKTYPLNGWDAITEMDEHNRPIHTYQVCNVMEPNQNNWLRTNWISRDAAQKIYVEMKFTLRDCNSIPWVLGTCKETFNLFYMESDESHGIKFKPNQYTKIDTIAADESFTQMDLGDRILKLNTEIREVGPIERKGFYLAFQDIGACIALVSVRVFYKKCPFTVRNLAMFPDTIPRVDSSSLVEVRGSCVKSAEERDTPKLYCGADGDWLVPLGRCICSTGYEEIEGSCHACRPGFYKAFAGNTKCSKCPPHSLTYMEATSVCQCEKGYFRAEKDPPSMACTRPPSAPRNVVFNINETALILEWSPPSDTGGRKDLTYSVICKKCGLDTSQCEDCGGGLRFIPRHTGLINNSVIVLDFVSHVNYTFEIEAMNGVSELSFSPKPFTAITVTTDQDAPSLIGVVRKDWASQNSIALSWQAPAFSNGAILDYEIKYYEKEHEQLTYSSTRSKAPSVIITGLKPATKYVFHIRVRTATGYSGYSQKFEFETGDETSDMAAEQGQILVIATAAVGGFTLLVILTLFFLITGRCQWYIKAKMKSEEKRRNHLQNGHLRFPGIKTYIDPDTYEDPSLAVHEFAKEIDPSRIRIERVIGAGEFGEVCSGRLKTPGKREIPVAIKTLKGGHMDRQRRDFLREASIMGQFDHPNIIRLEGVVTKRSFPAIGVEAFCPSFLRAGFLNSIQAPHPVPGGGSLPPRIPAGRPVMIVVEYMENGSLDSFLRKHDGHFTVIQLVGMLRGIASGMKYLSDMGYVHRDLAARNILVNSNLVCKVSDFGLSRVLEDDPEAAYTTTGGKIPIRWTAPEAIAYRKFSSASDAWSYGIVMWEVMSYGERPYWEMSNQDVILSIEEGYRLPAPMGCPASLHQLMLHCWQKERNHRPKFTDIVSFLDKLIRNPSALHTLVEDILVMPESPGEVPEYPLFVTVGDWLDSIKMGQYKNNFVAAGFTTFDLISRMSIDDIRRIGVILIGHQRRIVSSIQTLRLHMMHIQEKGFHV

382 unique human kinases [5] = biological target: T5, 382 unique human kinases (Homo sapiens, UniProt Q8NG66); conditions: NEK11, compound at 10 uM, duplicate values; for remaining activity at 10 µM: read-out: % Enzyme Activity (relative to DMSO controls)
T5 construct: purchased Reaction Biology (HotSpot contract assay)
T5 sequence (Q8NG66 1-645): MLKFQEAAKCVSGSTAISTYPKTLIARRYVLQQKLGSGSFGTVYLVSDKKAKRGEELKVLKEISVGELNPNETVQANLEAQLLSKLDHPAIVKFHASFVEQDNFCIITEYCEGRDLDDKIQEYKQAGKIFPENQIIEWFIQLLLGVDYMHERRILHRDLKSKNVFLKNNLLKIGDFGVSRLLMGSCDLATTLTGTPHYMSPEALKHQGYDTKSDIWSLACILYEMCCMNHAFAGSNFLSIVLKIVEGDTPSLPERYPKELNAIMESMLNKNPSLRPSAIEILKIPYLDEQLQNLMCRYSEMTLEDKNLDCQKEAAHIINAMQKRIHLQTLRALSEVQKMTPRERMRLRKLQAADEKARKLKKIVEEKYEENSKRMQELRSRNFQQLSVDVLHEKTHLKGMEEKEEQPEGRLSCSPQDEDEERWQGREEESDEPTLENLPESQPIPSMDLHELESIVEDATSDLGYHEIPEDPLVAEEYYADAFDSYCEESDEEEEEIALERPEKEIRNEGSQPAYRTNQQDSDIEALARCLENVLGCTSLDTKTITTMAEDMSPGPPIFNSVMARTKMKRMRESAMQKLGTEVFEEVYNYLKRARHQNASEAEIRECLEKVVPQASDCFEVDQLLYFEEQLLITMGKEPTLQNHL

Row | SMILES | % Enzyme Activity (relative to DMSO controls) (382 unique human kinases [1]) | remaining activity at 10 µM (382 unique human kinases [1]) | % Enzyme Activity (relative to DMSO controls) (382 unique human kinases [2]) | remaining activity at 10 µM (382 unique human kinases [2]) | % Enzyme Activity (relative to DMSO controls) (382 unique human kinases [3]) | remaining activity at 10 µM (382 unique human kinases [3]) | remaining activity at 10 µM (382 unique human kinases [4]) | remaining activity at 10 µM (382 unique human kinases [5]) | % Enzyme Activity (relative to DMSO controls) (382 unique human kinases [4]) | % Enzyme Activity (relative to DMSO controls) (382 unique human kinases [5])
1 | CCNC(=O)c1noc(-c2cc(C(C)C)c(O)cc2O)c1-c1ccc(CN2CCOCC2)cc1 [Luminespib] | 75.80% | 76.2% | 104.48% | 107% | 94.10% | 96.1% |  |  |  | 
2 | CC(C)c1cc(-c2n[nH]c(=O)n2-c2ccc3c(ccn3C)c2)c(O)cc1O [Ganetespib (STA9090)] |  |  |  |  |  |  | 91% | 117% |  | 
3 | CCNC(=O)c1noc(-c2cc(C(C)C)c(O)cc2O)c1-c1ccc(CN2CCOCC2)cc1 [Luminespib (AUY-922)] |  |  |  |  |  |  | 92% | 102% | 91.89% | 100.52%
4 | CC(C)c1cc(-c2n[nH]c(=O)n2-c2ccc3c(ccn3C)c2)c(O)cc1O [Ganetespib] |  | 41.8% |  | 107% |  | 95% |  |  |  | 
